{
  "source": "paper PMC2801561",
  "about": "(Cell, 2009)",
  "molecules": {"B1": {"name": "TIP47 (endogenous, K562), O60664 1-434 (natural protein)", "chain": "MSADGAEADGSTQVTVEEPVQQPSVVDRVASMPLISSTCDMVSAAYASTKESYPHIKTVCDAAEKGVRTLTAAAVSGAQPILSKLEPQIASASEYAHRGLDKLEENLPILQQPTEKVLADTKELVSSKVSGAQEMVSSAKDTVATQLSEAVDATRGAVQSGVDKTKSVVTGGVQSVMGSRLGQMVLSGVDTVLGKSEEWADNHLPLTDAELARIATSLDGFDVASVQQQRQEQSYFVRLGSLSERLRQHAYEHSLGKLRATKQRAQEALLQLSQVLSLMETVKQGVDQKLVEGQEKLHQMWLSWNQKQLQGPEKEPPKPEQVESRALTMFRDIAQQLQATCTSLGSSIQGLPTNVKDQVQQARRQVEDLQATFSSIHSFQDLSSSILAQSRERVASAREALDHMVEYVAQNTPVTWLVGPFAPGITEKAPEEKK"}},
  "key": {"[1]": {"target": "GST-RhoBTB3 Rho domain (residues 1-220) (Homo sapiens, UniProt O94955, N138D)", "sequence (O94955 1-220 N138D)": "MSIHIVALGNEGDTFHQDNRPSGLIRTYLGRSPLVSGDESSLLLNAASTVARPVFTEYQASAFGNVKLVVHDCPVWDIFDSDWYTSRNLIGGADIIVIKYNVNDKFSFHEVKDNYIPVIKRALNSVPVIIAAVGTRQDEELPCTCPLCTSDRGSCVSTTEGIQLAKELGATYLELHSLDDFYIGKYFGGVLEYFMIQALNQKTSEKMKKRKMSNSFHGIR", "assay": "[γ-32P]ATP hydrolysis", "type": "biochemical", "settings": "MgCl2; labelled compound; 20 nM protein"}, "[2]": {"target": "T1, TIP47 (endogenous, K562) (human (endogenous in K562)), O60664", "T1 chain": "B1 chain", "assay": "native gel or EMSA", "settings": "remark: other sources report otherwise"}},
  "data": [
    {"molecule": "Nc1ncnc2c1ncn2[C@@H]1O[C@H](COP(=O)(O)OP(=O)(O)OP(=O)(O)O)[C@@H](O)[C@H]1O", "note": "[ATP]", "values": [
      {"measurement": "[γ-32P]ATP hydrolysis", "setting": "[1]", "value": "reverted to the D found in most other small GTPases (N138D), significantly less binding"}
    ]},
    {"molecule": "B1", "values": [
      {"measurement": "stoichiometry N", "setting": "[2]", "value": 2}
    ]}
  ]
}
